Data as given in patent publication US8247407B2, priority 2007, dated 2012).
Where a name gives a salt, the structure may show the parent alone.

Experiments:
[1] = system: rats with alloxan diabetes; experiment: Hypoglycemic activity, alloxan diabetes model in rats (Example 1); type: in vivo, rat
Description: The pharmaceutical compositions for determination of anti-diabetic action had the following composition: active compound—1 g, potato starch—1 g, water—100 ml.
(§1) The comparison of anti-diabetic action of compounds was carried out using a standard model of alloxan diabetes and metmorphin as a comparative drug. The alloxan diabetes was induced by a single subcutaneous injection of water solution of alloxan hydrate (ICN Biomedicals, USA) at a dose of 150 mg/kg to rats weighting 180-200 g that have fasted for 24 hours. The following animal groups were studied: intact rats, diabetic non-treated rats, diabetic rats receiving Polfa-Kutno Ltd.″ metmorphin daily (for 23 days, 200 mg/kg); diabetic rats receiving daily (for 20 days) the abovementioned pharmaceutical compositions containing, as an active components, the compounds described in this invention: MC-200-MC-225. The compounds were administered intragastrically once a day in starch gel at a dose of 50 mg/kg rat weight.
(§2) The experimental drug doses were selected assuming the expected therapeutic doses for man and previously determined toxic doses (LD50 of studied compounds was approximately 500-1,000 mg/kg). The metmorphin dose for rats was extrapolated from the therapeutic dose for man. Drug administration was started on the third day after alloxan injection when blood glucose level increased approximately 3-fold as compared to control value. Each group consisted of 20 animals of both genders.

[2] = system: white rats with experimental diabetes (alloxan diabetes); experiment: Anti-diabetic, hypolipidemic and hypocholesteremic activity, alloxan diabetes model in rats (Example 2); type: in vivo, rat; settings: compounds 50 mg/kg, metmorphin 200 mg/kg daily
Description: as §1, §2
Pharmaceutical compositions for determination of anti-diabetic action had the same composition as that given in Example I.
The comparison of the anti-diabetic action of compounds was carried out using a standard model of alloxan diabetes, as described in Example I, and metmorphin as a comparative drug.
In the course of experiment, the following parameters were recorded: animal general condition, water consumption, body mass, levels of glucose, total lipids, tri-glycerides, serum blood cholesterol, and glycosylated hemoglobin, using the generally accepted techniques (Laboratory methods of studies in clinical practice, V. V. Menshikov, Ed., Moscow, “Medicine”, 1987).

[3] = diabetic rats' blood, in 10 days, compounds 50 mg/kg intragastrically once a day in starch gel, metmorphin 200 mg/kg daily
[4] = diabetic rats' blood, in 20 days, compounds 50 mg/kg intragastrically once a day in starch gel, metmorphin 200 mg/kg daily

Row | SMILES | Glucose content, mmol/l, in 10 days [1, 3] [mmol/L] | Glucose content, mmol/l, in 20 days [1, 4] [mmol/L] | other results
1 | CCOC(=O)c1c(CSCc2ccccc2)n(C)c2cc(Br)c(O)c(CN(C)C)c12 [MC-206, 1-methyl-2-benzylthiomethyl-3-carbethoxy-4-dimethylaminomethyl-5-hydroxy-6-bromoindole] | 11.2 ± 0.7 | 10.8 ± 0.6 | 
2 | CCOC(=O)c1c(CN(C)C)n(C)c2cc(-c3cccnc3)c(O)c(CN3CCCC3)c12 [MC-211, 1-methyl-2-dimethylaminomethyl-3-carbethoxy-4-pyrrolidinomethyl-5-hydroxy-6-(pyridine-3-yl)indole trihydrochloride] | 5.0 ± 0.2 | 4.8 ± 0.2 | 
3 | CCOC(=O)c1c(CN2CCCC2)n(C)c2cc(-c3cccnc3)c3c(c12)CN(C)CO3 [MC-213, 9-carbethoxy-2,7-dimethyl-5-pyridine-3-yl-8-[(pyrrolidine-1-yl)methyl]-1,2,3,7-tetrahydro[1,3]oxazino [5,6-e] indole trihydrochloride] |  |  | Glucose content, mmol/l, in 10 days ([1]; rat, in vivo): 5.8 ± 0.4 mmol/L; Glucose content, mmol/l, in 20 days ([1]; rat, in vivo): 5.5 ± 0.3 mmol/L; Body mass ([2]; in 10 days): 185 ± 5 g; Cholesterol ([2]; in 10 days): 2.7 ± 0.5 mmol/L; Daily water consumption ([2]; in 10 days): 26 ± 5 mL; Glucose ([2]; in 10 days): 5.8 ± 0.3 mmol/L; Glycosylated hemoglobin ([2]; in 10 days): 6.4 ± 0.3 mol %; Percent of survived rats ([2]; in 10 days): 90%; Total lipids ([2]; in 10 days): 10.5 ± 0.5 g/L; Tri-glycerides ([2]; in 10 days): 2.5 ± 0.3 mmol/L; β-lipoproteins ([2]; in 10 days): 2.2 ± 0.2 g/L; Body mass ([2]; in 20 days): 183 ± 10 g; Cholesterol ([2]; in 20 days): 1.5 ± 0.2 mmol/L; Daily water consumption ([2]; in 20 days): 25 ± 6 mL; Glucose ([2]; in 20 days): 5.5 ± 0.3 mmol/L; Glycosylated hemoglobin ([2]; in 20 days): 6.2 ± 0.5 mol %; Percent of survived rats ([2]; in 20 days): 75%; Total lipids ([2]; in 20 days): 10.4 ± 1.0 g/L; Tri-glycerides ([2]; in 20 days): 1.7 ± 0.2 mmol/L; β-lipoproteins ([2]; in 20 days): 2.1 ± 0.2 g/L
4 | CCOC(=O)c1c(C[S+]([O-])c2ccccc2)n(C)c2cc(Br)c(O)c(CN(C)C)c12 (stereo not drawn) [MC-223, 1-methyl-2-phenylsulfinylmethyl-3-carbethoxy-4-dimethylaminomethyl-5-hydroxy-6-bromoindole] | 8.4 ± 0.6 | 8.2 ± 0.6 | 
5 | CCOC(=O)c1c(CSc2ccccc2)n(C)c2cc(-c3cccnc3)c(O)c(CN(C)C)c12 [MC-215, 1-methyl-2-phenylthiomethyl-3-carbethoxy-4-dimethylaminomethyl-5-hydroxy-6-pyridinyl-3 indole] | 5.6 ± 0.2 | 5.4 ± 0.3 | 
6 | CCOC(=O)c1c(CN(C)C)n(C)c2cc(-c3cccnc3)c3c(c12)CN(C)CO3 | 5.6 ± 0.3 | 5.4 ± 0.5 | 
7 | CCOC(=O)c1c(C[S+]([O-])Cc2ccc(F)c(F)c2)n(C2CC2)c2cc(Br)c(O)c(CN3CCN(C)CC3)c12 (stereo not drawn) [MC-221, 1-cyclopropyl-2-(3,4-difluor)benzylsulfinyl-methyl-3-carbethoxy-4-(N-methyl)-piperazinomethyl-5-hydroxy-6-bromoindole dihydrochloride] | 7.3 ± 0.4 | 7.2 ± 0.4 | 
8 | CCOC(=O)c1c(CS(=O)(=O)c2ccccc2)n(C)c2cc(-c3cccnc3)c(O)c(CNC)c12 [MC-214, 1-methyl-2-phenylsulfonylmethyl-3-carbethoxy-4-methylaminomethyl-5-hydroxy-6-pyridinyl-3 indole dihydrochloride] | 10.2 ± 0.8 | 9.9 ± 0.7 | 
9 | CCOC(=O)c1c(CSCc2ccccc2)n(C2CC2)c2cc(Br)c(O)c(CNC(=N)N)c12 [MC-219, 1-cyclopropyl-2-benzylthiomethyl-3-carbethoxy-4-guanidinomethyl-5-hydroxy-6-bromoindole] |  |  | Glucose content, mmol/l, in 10 days ([1]; rat, in vivo): 9.3 ± 0.6 mmol/L; Glucose content, mmol/l, in 20 days ([1]; rat, in vivo): 9.0 ± 0.5 mmol/L
10 | CCOC(=O)c1c(CSc2ccccc2)n(Cc2ccccc2)c2cc(Br)c(O)c(CN(C)C)c12 [MC-205, 1-benzyl-2-phenylthiomethyl-3-carbethoxy-4-dimethylaminomethyl-5-hydroxy-6-bromoindole] | 8.4 ± 0.6 | 8.1 ± 0.5 | 
11 | CCOC(=O)c1c(CN2CCCC2)n(C)c2cc(-c3cccnc3)c(O)c(CN(C)C)c12 [MC-212, 1-methyl-2-pyrrolidinomethyl-3-carbethoxy-4-dimethylaminomethyl-5-hydroxy-6-(pyridine-3-yl)indole trihydrochloride] | 5.2 ± 0.3 | 5.1 ± 0.3 | 
12 | CCOC(=O)c1c(C[S+]([O-])Cc2ccccc2OC)n(C)c2cc(Br)c(O)c(CNC(=N)N)c12 (stereo not drawn) [MC-218, 1-methyl-2-(o-methoxy)-benzylsulfinylmethyl-3-carbethoxy-4-guanidinomethyl-5-hydroxy-6-bromoindole hydrochloride] | 7.2 ± 0.4 | 7.1 ± 0.4 | 
13 | CCOC(=O)c1c(CSc2ccccc2)n(C)c2cc(C#N)c(O)c(CN(C)C)c12 [MC-216, 1-methyl-2-phenylthiomethyl-3-carbethoxy-4-dimethylaminomethyl-5-hydroxy-6-cyano indole] | 8.4 ± 0.4 | 8.1 ± 0.4 | 
14 | CCOC(=O)c1c(CSc2ccc(C)cc2)n(C)c2cc(Br)c(O)c(CN(C)C)c12 [MC-201, 1-methyl-2-p-toluilthiomethyl-3-carbethoxy-4-dimethyl-aminomethyl-5-hydroxy-6-bromoindole] | 6.4 ± 0.4 | 6.2 ± 0.3 | 
15 | CCOC(=O)c1c(CS(=O)(=O)c2ccccc2)n(C)c2cc(-c3cccnc3)c(O)c(CN(C)C)c12 [MC-210, 1-methyl-2-phenylsulfonylmethyl-3-carbethoxy-4-dimethylaminomethyl-5-hydroxy-6-(pyridine-3-yl)indole] | 5.4 ± 0.2 | 5.3 ± 0.3 | 
16 | CCOC(=O)c1c(C[S+]([O-])Cc2ccc(F)cc2)n(C)c2cc(Br)c(O)c(CN3CCOCC3)c12 (stereo not drawn) [MC-220, 1-methyl-2-(p-fluor)-benzylsulfinylmethyl-3-carbethoxy-4--4-morpholinomethyl-5-hydroxy-6-bromoindole hydrochloride] | 5.9 ± 0.2 | 5.8 ± 0.2 | 
17 | CCOC(=O)c1c(CS(=O)(=O)c2ccccc2)n(C)c2cc(Br)c(O)c(CN(C)C)c12 [MC-222, 1-methyl-2-phenylsulfonylmethyl-3-carbethoxy-4-dimethylaminomethyl-5-hydroxy-6-bromoindole] | 6.4 ± 0.3 | 6.2 ± 0.3 | 
18 | CCOC(=O)c1c(C[S+]([O-])c2ccccc2)n(C)c2cc(Br)c(O)cc12 (stereo not drawn) [MC-225, 1-methyl-2-phenylsulfinylmethyl-3-carbethoxy-5-hydroxy-6-bromoindole] | 8.2 ± 0.5 | 7.9 ± 0.4 | 
19 | CCOC(=O)c1c(CN(C)C)n(C)c2cc(-c3cccnc3)c(O)cc12 [MC-208, 1-methyl-2-dimethylaminomethyl-3-carbethoxy-5-hydroxy-6-(pyridine-3-yl)indole] | 9.8 ± 0.4 | 9.5 ± 0.4 | 
20 | CCOC(=O)c1c(CSc2ccccc2)n(-c2ccc(C)cc2)c2cc(Br)c(O)c(CN(C)C)c12 [MC-204, 1-p-toluyl-2-phenylthiomethyl-3-carbethoxy-4-dimethylaminomethyl-5-hydroxy-6-bromoindole] | 6.4 ± 0.3 | 6.2 ± 0.3 | 
21 | CCOC(=O)c1c(CSc2ccc(CC)cc2)n(C)c2cc(Br)c(O)c(CN(C)C)c12 [MC-202, 1-methyl-2-(p-ethyl)-phenyl-thiomethyl-3-carbethoxy-4-dimethylaminomethyl-5-hydroxy-6-bromoindole] | 7.3 ± 0.5 | 7.0 ± 0.4 | 
